# Data from patent publication US20240067603A1, “CUBANYL BIGUANIDE COMPOUNDS” (REGENTS OF THE UNIVERSITY OF MINNESOTA, priority 2020, published 2024).
# pIC50: −log10 of the molar value. Like-named read-outs stand apart in the source and are kept apart here.
# Key:
# MCF-7 cells = test: Oxygen consumption rate (OCR), Seahorse XFe, MCF-7; format: cell-based, human
# Protocol: FIGS. 3A-3B. Effects of DCB (FIG. 3B) and HCB (FIG. 3A) on MCF-7 cells respiration. MCF-7 cells were seeded at 25,000 cells/well into a 96-well XF96 cell microplate. Growth media was replaced with 150 μL metabolism assay media the next day and cells were incubated CO2 free for 1 hour before the measurement of oxygen consumption rate (OCR) every seven minutes by a Seahorse XFe analyzer. Drugs were injected into the media after the fifth measurement (indicated by time point A and the dashed line). Results are reported as mean of percent of base OCR (OCR of the fifth measurement)±S.D. (n=12 for DMSO and 16 for treatment groups).
# Measurement of oxygen consumption rate (OCR). Cells were maintained in growth medium consisting of 10% FBS at 37° C. with 5% CO2 and seeded at 25,000 cells per well in a 96-well XF96 cell culture microplates (Agilent, Santa Clara, CA). An 96 well XF sensor cartridge was hydrated and equilibrated with 200 ul calibrant in each well at 37° C. without CO2 overnight. […] OCRs were measured periodically and can be reported in pmoles/minute or normalized against baseline measurements before treatment.
# CYP2C8 [1] = biological target: T1, CYP2C8 (Homo sapiens, UniProt P10632); test: Stability with recombinant human CYP2C8; format: in vitro ADME; settings: 10 μM HCB, recombinant human CYP2C8, NADPH 2 mM
# T1 construct: purchased Corning; host or cells: insect cells (microsomes)
# T1 sequence (P10632 1-490): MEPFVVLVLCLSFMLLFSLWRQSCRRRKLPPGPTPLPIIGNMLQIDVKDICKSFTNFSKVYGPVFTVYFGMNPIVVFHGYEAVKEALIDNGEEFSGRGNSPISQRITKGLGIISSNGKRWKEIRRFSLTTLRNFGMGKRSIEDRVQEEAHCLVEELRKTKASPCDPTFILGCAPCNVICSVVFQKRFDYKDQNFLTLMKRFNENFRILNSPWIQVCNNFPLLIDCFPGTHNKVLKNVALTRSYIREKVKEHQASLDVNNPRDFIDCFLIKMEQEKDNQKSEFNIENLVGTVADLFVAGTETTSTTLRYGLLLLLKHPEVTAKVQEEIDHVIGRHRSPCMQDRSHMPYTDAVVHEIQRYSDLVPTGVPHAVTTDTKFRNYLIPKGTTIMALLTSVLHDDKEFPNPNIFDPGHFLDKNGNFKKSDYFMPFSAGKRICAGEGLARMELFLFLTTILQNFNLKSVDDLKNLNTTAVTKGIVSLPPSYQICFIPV
# Protocol: Stability of HCB with recombinant human CYP3A4 and CYP2C8 enzymes was evaluated. 10 μM HCB was tested wich CYP3A4 and 2C8 (200 pmol/L) (Table 8). NADPH (2 mM) was added as a cofactor. Total volume was 200 μL.
# HCB was incubated for 0, 30, or 60 min at 37° C. Incubations were quenched with 2 volumes of acetonitrile followed by centrifugation for 10 min at 16,000 g.
# CYP2C8 [2] = biological target: T1, CYP2C8; test: CYP2C8-mediated arachidonic acid epoxygenase EET biosynthesis; format: biochemical
# Protocol: Recombinant Microsomal CYP-mediated EET Biosynthesis. CYP Supersomes™ (Corning, NY) (1 μM, final concentration) were incubated at 37° C. for 30 min in the presence of AA (120 μM) in 50 μl potassium phosphate buffer, (50 mM, pH 7.4), containing 1 mM EDTA and 1 mM NADPH. Reactions were terminated by addition of 50 μL of acetonitrile spiked with ^13C-EET internal standards followed by vigorous vortexing. After centrifugation at 16,000×rpm for 10 minutes to precipitate proteins and other insoluble debris and 80 μL supernatant was transferred into HPLC vials and analyzed by with an LC-ESI/MRM/MS method.
# LC-ESI/MRM/MS Method for EET Measurement. EETs were measured by an LC-ESI/MRM/MS analytical method on a ThermoFisher Vantage triple quadrupole mass spectrometer (ThermoFisher, San Jose, CA) coupled with an UltiMate 3000 HPLC (ThermoFisher, San Jose, CA), using argon as the collision gas. Negative ion monitoring was performed at the following diagnostic product ions: 319 m/z→155 m/z for 8,9-EET; 319 m/z→179 m/z for 11,12-EET; 319 m/z→219 m/z for 14,15-EET; 339 m/z→163 m/z for 8,9-[^13C-20]EET; 339 m/z→233 m/z for 11,12-[^13C-20]EET; and 339 m/z→259 m/z for 14,15-[^13C-20]EET. Base-line resolution of EET regioisomers was achieved on a Phenomenex Luna C18 (2) reverse phase capillary column (250×0.5 mm, 5-μm particles) using the following mobile phase combinations: isocratic 5% B for 5 min, gradient 5-70% B for 5 min, hold at 70% for 30 min and then 95% for 10 min; A: 0.01% acetic acid in water, B: 0.01% acetic acid in acetonitrile; 10 μl/min flow rate. A standard curve was obtained by linear regression of the peak area ratio of authentic EET regioisomers against internal standards. The amount of EETs in samples was calculated according to the standard curve.
smiles,measurement,setting,value
"CCCCCCNC(=N)NC(=N)NCC12C3C4C5C3C1C5C42 (stereo not shown) [HCB, Hexyl Cubanomethyl Biguanide]",effect on oxidative phosphorylation (OCR),"MCF-7 cells; 10 μM, MCF-7 cells, FIGS. 3A-3B",inhibited oxidative phosphorylation
same,OCR Inhibition [HCB] (uM) v vs. control (P < 0.05),MCF-7 cells; MCF-7,10 µM
same,parent metabolite peak area after 60 min,CYP2C8 [1],99.78%
same,pIC50,"CYP2C8 [2]; (±)8,9-EET, read-out: IC50, CYP2C8 biosynthesis of (±)8,9-EET",4.51
same,pIC50,"CYP2C8 [2]; (±)11,12-EET, read-out: IC50, CYP2C8 biosynthesis of (±)11,12-EET",4.28
same,fold lower inhibition of CYP2C8 (vs CYP3A4),"CYP2C8 [2]; (±)14,15-EET biosynthesis",10 fold
same,pIC50,"CYP2C8 [2]; (±)14,15-EET, read-out: inhibition of CYP2C8-mediated biosynthesis of (±)14,15-EET",4.38
